Where two headings read alike, the source gives them in different places.
Assays:
ILA1 TCR [1] = conditions: SPR, cited from earlier work; for Kd: equilibrium binding
[2] = pMHC thermal stability by circular dichroism; assay type: physicochemical; conditions: CD thermal denaturation at 218 nm, PBS, ∼3 μM, 0.1-cm cell, two-state trimer-to-monomer fit
Description: Thermal stability of the HLA-A*0201-peptide complexes was assessed by circular dichroism spectroscopy, monitoring the change in ellipticities at 218 nm upon heating as described ([31]). Briefly, samples were prepared in PBS at a concentration of ∼3 μM and measured in 0.1-cm quartz cells. Melting curves were analyzed assuming a two-state trimer-to-monomer transition from the native to unfolded conformation and fitted as described ([43]). As all protein complexes aggregated to various degrees upon unfolding, the ellipticity of the unfolded state was set as a constant of −1.35 M^−1 cm^−1 ([44]).

ILA1 TCR [3] = test: Surface plasmon resonance binding of ILA1 TCR to HLA-A*0201-ILA peptide variants; set-up: species or system human; conditions: 25 °C; for Kd: equilibrium binding, SPR, serial dilutions in duplicate, three independent experiments
Description: Binding analysis was performed in duplicate using a BIAcoreT200^TM equipped with a CM5 sensor chip as described previously ([45]). Approximately 200–500 response units of HLA-A*0201-[…] or HLA-A*0201-[…] peptide complex was attached to the CM5 sensor chip at a slow flow rate of 10 μl/min to ensure uniform distribution on the chip surface. […] For equilibrium analysis, 10 serial dilutions were prepared in duplicate for each sample and injected over the relevant sensor chips at 25 °C. TCR was injected over the chip surface using kinetic injections at a flow rate of 45 μl/min using HLA-A*0201-[…] as a negative control surface on flow cell 1. Results were analyzed using BIAevaluation^TM 3.1, Excel, and Origin 6.0 software. The equilibrium dissociation constant (KD) values were calculated assuming a 1:1 interaction by plotting specific equilibrium binding responses against protein concentrations followed by non-linear least square fitting of the Langmuir binding equation. For kinetics analysis, the kon and koff values were calculated assuming 1:1 Langmuir binding, and the data were analyzed using a global fit algorithm (BIAevaluation 3.1).

[4] = molecular target: altered peptide ligand of human telomerase reverse transcriptase 540-548 peptide on HLA-A*02:01 (human); test: SPR, equilibrium binding; kinetics n/m (too fast to measure); data from (39); soluble, other
[5] = molecular target: altered peptide ligand of human telomerase reverse transcriptase 540-548 peptide on HLA-A*02:01 (human); test: SPR, equilibrium binding; data from (17); soluble, other
[6] = molecular target: altered peptide ligand of human telomerase reverse transcriptase 540-548 (A2-ILA8T) peptide on HLA-A*02:01 (human); test: SPR, equilibrium binding; data from (39); soluble, other
[7] = molecular target: altered peptide ligand of human telomerase reverse transcriptase 540-548 (A2-ILA3G8R) peptide on HLA-A*02:01 (human); test: SPR, equilibrium binding at 25 °C, new data of this article; soluble, other
[8] = molecular target: altered peptide ligand of human telomerase reverse transcriptase 540-548 peptide on HLA-A*02:01 (human); test: SPR, equilibrium binding; kinetics n/m (too fast to measure); data from (39); soluble, other; remark: listed apart in the source
[9] = molecular target: altered peptide ligand of human telomerase reverse transcriptase 540-548 (A2-ILA8R) peptide on HLA-A*02:01 (human); test: SPR, equilibrium binding at 25 °C, new data of this article; kinetics n/m (too fast to measure); much weaker than the index A2-ILA ([…] μM); soluble, other
[10] = molecular target: human telomerase reverse transcriptase peptide on HLA-A*02:01 (human); test: van 't Hoff analysis of SPR affinities at 5-37 °C; soluble, other
[11] = molecular target: altered peptide ligand of human telomerase reverse transcriptase 540-548 peptide on HLA-A*02:01 (human); test: SPR, equilibrium binding; data from (17); soluble, other; remark: listed apart in the source
[12] = molecular target: altered peptide ligand of human telomerase reverse transcriptase 540-548 peptide on HLA-A*02:01 (human); test: SPR, equilibrium binding; data from (16); soluble, other
[13] = molecular target: altered peptide ligand of human telomerase reverse transcriptase 540-548 (A2-ILA8E) peptide on HLA-A*02:01 (human); test: SPR, equilibrium binding; kinetics n/m; data from (39); extremely weak against the index A2-ILA ([…] μM); soluble, other
[14] = SPR BIAcore T200, ILA1 TCR injected over immobilised pMHC, 1:1 Langmuir global fit

Substance	koff (ILA1 TCR [1])	kon (ILA1 TCR [1])	Kd (ILA1 TCR [1])	apparent Tm (melting temperature) [2]	other results
ILGKFLHWL	0.05 s⁻¹	16000 M⁻¹ s⁻¹	3.7 ± 0.2 µM	49.8 °C	–
ILALFLHWL	0.2 s⁻¹	1700 M⁻¹ s⁻¹	117 ± 6 µM	–	–
ILAKFLHRL	–	–	–	60.9 °C	Kd (ILA1 TCR [3]): 151 ± 8 µM
ILGKFLHTL	0.05 s⁻¹	19500 M⁻¹ s⁻¹	2.5 ± 0.5 µM	55.6 °C	–
ILAKFLHEL	–	–	> 500 µM	58.8 °C	–
ILAKFLHWL	–	–	–	54.5 °C	–
ILAKFLHYL	–	–	22.6 ± 2.1 µM	–	–
ILAKFLHTL	0.08 s⁻¹	2200 M⁻¹ s⁻¹	28 ± 5 µM	58.7 °C	–
ILA1 TCR	–	–	–	–	Kd [4]: 82 µM; Kd [5]: 242 µM; Kd [6]: 28 µM; Kd [7]: 1 µM; Kd [8]: 22.6 µM; Kd [9]: 151 µM; TΔS [10]: 5.86 kcal/mol; Kd [11]: 2.5 µM; Kd [12]: 117 µM; Kd [13]: > 500 µM
ILAKYLHWL	0.32 s⁻¹	1300 M⁻¹ s⁻¹	242 ± 20 µM	–	–
ILGKFLHRL	–	–	–	55.9 °C	koff (ILA1 TCR [3]; [14]): 0.16 s⁻¹; kon (ILA1 TCR [3]; [14]): 30000 M⁻¹ s⁻¹; Kd (ILA1 TCR [3]): 1 ± 0.1 µM
ILAKFLYWL	–	–	82 ± 8 µM	–	–
